The values that follow come from patent publication US11244760B2, “Prediction device based on inter-organ cross talk system” (KARYDO THERAPEUTIX, INC., priority 2015, dated 2022).

“And” between values parts separate entries of the source, which are not always exact repeats. Equal entries are not always repeated.

The nature of series [1]: Blood glucose level after administration of STZ (simple blood glucose meter, tail vein). The class given is in vivo, mouse. Conditions: STZ 75 mg/kg intraperitoneally for 3 consecutive days, 4-week-old male C57BL/6NCr Slc mice, fasted overnight; individual animals. The method, then: (§1) 0.01% citrate buffer solution (pH 4.5) of streptozotocin (STZ) was intraperitoneally administered to 4-week-old male C57BL/6NCr Slc mice in an amount of 75 mg/kg in terms of STZ for 3 consecutive days (administered solution amount: 10 mL/kg). 0.01% citrate buffer solution (pH 4.5), which is a solvent, was intraperitoneally administered to the control group for 3 consecutive days (administered solution amount: 10 mL/kg). The animals from which the organs and tissue were to be collected were fasted overnight from the day before dissection. On the day of dissection, the tail vein of each mouse was cut, and the blood glucose level was measured with a simple blood glucose meter. On the following day, the mice were euthanized by cervical dislocation without anesthesia, and the organs and tissue were collected. After the wet weights of the collected organs and tissue were measured, the organs and tissue were rapidly frozen in liquid nitrogen and stored at −80° C.

Series [2] can be described thus: Body weight at dissection after administration of STZ. The class given is in vivo, mouse. Conditions: STZ 75 mg/kg intraperitoneally for 3 consecutive days, 4-week-old male C57BL/6NCr Slc mice; individual animals. The procedure:
as §1

Another series concerns Hamp. The experiment in a line: D-iOrgans real-time PCR, STZ/Control relative expression, Hamp. The class given is in vivo, mouse. The procedure:
(§2) 1 μg of total RNA obtained from each tissue was used as a template for cDNA synthesis, and cDNA was synthesized using Oligo dT20 primer according to the standard protocol of Superscript III First-Strand Synthesis Supermix (Life Technologies). After the synthesized cDNA was diluted 20-fold with 10-fold diluted TE buffer (10 mM Tris-HCl, pH 8.0, 0.1 mM EDTA), real-time PCR was performed with a […] (Roche) according to the standard protocol of LightCycler 480 SYBR Green I Master (Roche) and Cp values were measured. The relative expression level of each gene relative to the reference gene was calculated by comparing the Cp value obtained for each gene with the Cp value for β2-microglobulin (B2m) or Maea as a reference gene, and MI/Sham was determined. However, with the primer set for Hba-a, Hba-a1 and Hba-a2 cannot be distinguished in PCR, and with the primer set for Hbb-b, Hbb-bs, and Hbb-bt cannot be distinguished in PCR. […]
(§3) Real-time PCR was conducted according to the procedure described in 1-4 (4) of “I. iOrgans” to measure Cp values. The relative expression level of each gene relative to the reference gene was calculated by comparing the Cp value obtained for each gene with the Cp value for β2-microglobulin (B2m) or Maea as a reference gene to, and STZ/Control was determined. […]
In general terms: Real-time PCR tracks product formation cycle by cycle.

Another series concerns Saa1. The experiment in a line: D-iOrgans real-time PCR, STZ/Control relative expression, Saa1. The class given is in vivo, mouse. Conditions: liver of the STZ administration mice. The procedure: as §2, §3
For series [3] the following is noted: administered to a mouse for a week or more; cited from earlier work.

`CN(N=O)C(=O)N[C@H]1C(O)O[C@H](CO)[C@@H](O)[C@@H]1O` (mixture of isomers) [STZ, streptozotocin]: in series [1], the Blood glucose was 65 mg/dL and 83 mg/dL and 42 mg/dL. For the same molecule, the “Body weight at dissection” value in series [2] is 12.8 g (2×) and 10.3 g. For the same molecule, the “Expression of Hamp in the heart (STZ/Control)” value in the series on Hamp (heart, STZ administration mice, day after 3 days of STZ) was “increase”. Moreover, in the series on Hamp (inferred from known function of Hamp (iron metabolism)), the “Predicted side effect in the heart from Hamp expression” value was “decrease the amount of iron in cardiac cells”. The “Expression of Saa1 in the liver (STZ/Control)” value with Saa1 is recorded as “increase”. Moreover, the “Glycemic state after long administration” value in series [3] is reported as “becomes hyperglycemic”.
